Reference: article PMC9687610, “Adenosine-Mimicking Derivatives of 3-Aminopyrazine-2-Carboxamide: Towards Inhibitors of Prolyl-tRNA Synthetase with Antimycobacterial Activity” (Biomolecules, 2022)
≈ marks a conversion by molar mass, not a printed value.

How the values were obtained:
[1] = system: Mtb IZAK (multidrug-resistant clinical isolate); experiment: microbe, parasite or virus in culture; type: cell-based, Mycobacterium tuberculosis; conditions: for MIC: Mycobacterium tuberculosis, read-out: Mtb IZAK MIC; for Mtb IZAK susceptibility class (R/S): MDR clinical isolate
[2] = system: Mtb MATI (multidrug-resistant clinical isolate); experiment: microbe, parasite or virus in culture; type: cell-based, Mycobacterium tuberculosis; conditions: for MIC: Mycobacterium tuberculosis, read-out: Mtb MATI MIC; for Mtb MATI susceptibility class (R/S): MDR clinical isolate
Mtb laboratory ID MATI = conditions: MDR clinical isolate; external resistance profiling; cited from earlier work
Mtb laboratory ID IZAK = conditions: MDR clinical isolate; external resistance profiling; cited from earlier work

| Compound | MIC [1] [µg/mL] | MIC [2] [µg/mL] | Mtb MATI MIC, value from external resistance profiling (*) (Mtb laboratory ID MATI) [µg/mL] | Mtb IZAK susceptibility class (R/S) [1] | Mtb IZAK MIC, value from external resistance profiling (*) (Mtb laboratory ID IZAK) [µg/mL] | Mtb MATI susceptibility class (R/S) [2] |
| --- | --- | --- | --- | --- | --- | --- |
| Cc1ccc(C(=O)Nc2nccnc2C(N)=O)cc1 [Compound 4] | 12.5 (≈ 48.8 µM) | 12.5 (≈ 48.8 µM) |  |  |  |  |
| NC(=O)c1nccnc1NC(=O)c1ccc(F)cc1 [Compound 12] | 100 (≈ 384 µM) | 100 (≈ 384 µM) |  |  |  |  |
| NC(=O)c1nccnc1NC(=O)c1ccc(Cl)cc1 [Compound 15] | 12.5 (≈ 45.2 µM) | 12.5 (≈ 45.2 µM) |  |  |  |  |
| NC(=O)c1nccnc1NC(=O)c1ccc(Br)cc1 [Compound 18] | 12.5 (≈ 38.9 µM) | 12.5 (≈ 38.9 µM) |  |  |  |  |
| CC[C@@H](CO)NCCN[C@@H](CC)CO [EMB, ethambutol] | 0.39 (≈ 1.91 µM) | 0.39 (≈ 1.91 µM) | 0.5 | S | 0.5 | S |
| NNC(=O)c1ccncc1 [INH, isoniazid] | 4 (≈ 29.2 µM) | > 8 |  | R |  | R |
| NC(=O)c1cnccn1 [PZA, pyrazinamide] |  |  | > 128 | R | > 16 | R |
| CO[C@H]1/C=C/O[C@@]2(C)Oc3c(C)c(O)c4c(O)c(c(/C=N/N5CCN(C)CC5)c(O)c4c3C2=O)NC(=O)/C(C)=C\C=C\[C@H](C)[C@H](O)[C@@H](C)[C@@H](O)[C@@H](C)[C@H](OC(C)=O)[C@@H]1C [RIF, rifampicin] |  |  | > 8 | R | > 8 | R |
| [H]/N=C(/N)N[C@H]1[C@H](O)[C@@H](O)[C@H](O[C@@H]2O[C@@H](C)[C@](O)(C=O)[C@H]2O[C@@H]2O[C@@H](CO)[C@H](O)[C@@H](O)[C@@H]2NC)[C@@H](N/C(N)=N\[H])[C@@H]1O [STM, streptomycin] |  |  | > 16 | R | 4 | R |
